From article PMC11532494 (Nature Communications, 2024)
“And” between values parts separate entries of the source, which are not always exact repeats. Identical values can stand only once. Like-named read-outs stand apart in the source and are kept apart here. No end group written: not given here. *: point of attachment. AMC = Cc1cc(=O)oc2cc(N*)ccc12

How the values were obtained:
PsApaH (4) [1] = target: T1, PsApaH (4) (Pseudomonas sp. M30-35, UniProt A0A1Y0KY79); assay: Acetyl-polyamine deacetylase assay; type: biochemical; conditions: for [acetate] (individual samples): acetate released from acetyl-polyamine substrate, Sample 1-3; for [acetate] mean: mean of samples
Target sequence in this assay (A0A1Y0KY79 1-342 limits assumed): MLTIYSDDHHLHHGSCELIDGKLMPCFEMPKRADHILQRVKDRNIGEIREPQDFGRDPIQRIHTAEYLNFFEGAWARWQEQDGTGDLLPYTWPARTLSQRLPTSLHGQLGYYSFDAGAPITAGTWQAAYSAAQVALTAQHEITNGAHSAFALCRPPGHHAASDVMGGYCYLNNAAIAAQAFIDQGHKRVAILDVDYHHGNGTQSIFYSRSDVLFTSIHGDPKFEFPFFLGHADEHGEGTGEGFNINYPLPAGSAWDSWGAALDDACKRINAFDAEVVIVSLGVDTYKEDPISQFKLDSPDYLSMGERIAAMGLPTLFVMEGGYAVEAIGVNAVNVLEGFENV

PA1409 = PA1409 (Pseudomonas aeruginosa, UniProt Q9I3T5); assay: Acetyl-polyamine deacetylase assay (positive control); type: biochemical; conditions: for [acetate] (individual samples): PA1409, acetate released from acetyl-polyamine substrate, Sample 1-2; for [acetate] mean: mean of samples
Chain of PA1409 (Q9I3T5 whole entry): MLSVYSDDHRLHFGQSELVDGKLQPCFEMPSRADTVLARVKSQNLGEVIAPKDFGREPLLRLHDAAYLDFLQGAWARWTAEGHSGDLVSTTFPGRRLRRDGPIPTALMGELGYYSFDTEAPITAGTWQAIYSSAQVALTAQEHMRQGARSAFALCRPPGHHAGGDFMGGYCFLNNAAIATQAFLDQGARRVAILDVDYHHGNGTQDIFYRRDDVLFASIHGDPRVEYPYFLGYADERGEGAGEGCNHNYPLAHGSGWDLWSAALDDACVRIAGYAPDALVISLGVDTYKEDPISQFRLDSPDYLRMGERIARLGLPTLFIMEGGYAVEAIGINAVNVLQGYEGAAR

VsHdaH (1b) = type: biochemical, Vibrio sp.; conditions: VKDAC
KpHdaH (1b) = KpHdaH (1b) (Klebsiella pneumoniae, UniProt A0A377Z5F6); type: biochemical; conditions: KpHdaH (1b)
BsAcuC (2c) = target: T2, BsAcuC (2c) (Bacillus subtilis, UniProt P39067); assay: Substrate screening assay (acyl-peptide-AMC); type: biochemical; conditions: BsAcuC (2c); for [AMC]: Transform RFU in [AMC]
T2 construct: made in house; host or cells: E. coli BL21 (DE3)
T2 sequence (P39067 1-387): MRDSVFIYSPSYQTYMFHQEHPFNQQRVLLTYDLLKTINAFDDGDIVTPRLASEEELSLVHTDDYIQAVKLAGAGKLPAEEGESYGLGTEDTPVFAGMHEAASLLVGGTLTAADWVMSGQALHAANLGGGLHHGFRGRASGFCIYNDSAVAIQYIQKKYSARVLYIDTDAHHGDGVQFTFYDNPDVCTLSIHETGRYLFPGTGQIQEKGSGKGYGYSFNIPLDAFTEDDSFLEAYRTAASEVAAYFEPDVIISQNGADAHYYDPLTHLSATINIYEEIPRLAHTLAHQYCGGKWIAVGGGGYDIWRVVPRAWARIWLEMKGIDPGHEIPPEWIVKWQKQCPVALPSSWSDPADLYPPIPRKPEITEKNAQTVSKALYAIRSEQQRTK
Method: (§1) Experiments with SIRT2 and SIRT5 were supplemented with NAD^+ (500 µM). Thereafter, a solution of trypsin (25 µL, 5.0 mg/mL; final concentration of 2.5 mg/mL) was added, and the development of the assay was allowed to proceed for 90 min at room temperature before fluorescence analysis. […] To this end, a single category is given to all conversions >48% on the heatmap. […] For the H4-derived peptide LGKbio no positive control was available.

VcHdaH (5b) = type: biochemical, Vibrio cholerae; conditions: VcHdaH (5b); for [AMC]: Transform RFU in [AMC]
PsApaH (4) [2] = target: T1, PsApaH (4); type: biochemical; conditions: PsApaH (4)
Method: as §1

Controls = assay: Substrate screening assay (acyl-peptide-AMC), control enzymes; type: biochemical

Compound | [acetate] (individual samples) (PsApaH (4) [1]; time 10 min) | [acetate] (individual samples) (PsApaH (4) [1]; time 20 min) | [acetate] (individual samples) (PsApaH (4) [1]; time 45 min) | [acetate] mean (PsApaH (4) [1]; time 10 min) [mM] | [acetate] mean (PsApaH (4) [1]; time 20 min) [mM] | [acetate] mean (PsApaH (4) [1]; time 45 min) [mM] | [acetate] (individual samples) (PA1409; time 5 min) | [acetate] (individual samples) (PA1409; time 10 min) | [acetate] (individual samples) (PA1409; time 20 min) | [acetate] (individual samples) (PA1409; time 45 min) | [acetate] mean (PA1409; PA1409, time 5 min) [mM] | [acetate] mean (PA1409; PA1409, time 10 min) [mM] | [acetate] mean (PA1409; PA1409, time 20 min) [mM] | [acetate] mean (PA1409; PA1409, time 45 min) [mM] | Relative Fluorescene Units (RFU) (VsHdaH (1b); Transform RFU*2, Sample 1) | Relative Fluorescene Units (RFU) (VsHdaH (1b); Transform RFU*2, Sample 2) | Relative Fluorescene Units (RFU) (VsHdaH (1b); Sample 1) | Relative Fluorescene Units (RFU) (VsHdaH (1b); Sample 2) | Relative Fluorescene Units (RFU) (KpHdaH (1b); Sample 1) | Relative Fluorescene Units (RFU) (KpHdaH (1b); Sample 2) | further results
CC(=O)NCCCNCCCCNCCCN [N1/N12-acetylspermine] | 4.0761 mM and 4.1848 mM and 4.12 mM | 7.467 mM and 7.707 mM and 7.62 mM | 11.6196 mM and 12.1848 mM and 11.8587 mM | 4.127 | 7.598 | 11.8877 | 3.921 mM and 3.216 mM | 19.1192 mM and 18.2382 mM | 34.0974 mM and 33.8331 mM | 42.3354 mM and 46.7408 mM | 3.568 | 18.6787 | 33.9653 | 44.5381 | – | – | – | – | – | – | [acetate] (individual samples) (PsApaH (4) [1]; time 5 min): 2.337 mM and 2.446 mM and 2.554 mM; [acetate] mean (PsApaH (4) [1]; time 5 min): 2.446 mM
CC(=O)NCCCCNCCCN [N8-acetylspermidine] | 2.185 mM and 2.098 mM and 1.946 mM | 3.446 mM and 3.4674 mM and 3.489 mM | 4.967 mM and 5.12 mM (2×) | 2.076 | 3.4674 | 5.069 | 5.081 mM and 5.477 mM | 19.9519 mM and 19.336 mM | 23.7355 mM and 22.9876 mM | 24.7914 mM and 25.3193 mM | 5.279 | 19.6439 | 23.3615 | 25.0553 | – | – | – | – | – | – | –
QPKKhex (QPKK-{AMC}; not fully specified (residue 4); printed as QPKKhex; also: hexanoyl-lysine (which Lys not given here); UniProt P04637 317-320, looked up, fragment) | – | – | – | – | – | – | – | – | – | – | – | – | – | – | 72 | 194 | 36 | 97 | 170 | 14 | Relative Fluorescene Units (RFU) (KpHdaH (1b); Transform RFU*2, Sample 1): 340 RFU; Relative Fluorescene Units (RFU) (KpHdaH (1b); Transform RFU*2, Sample 2): 28 RFU; Relative Fluorescene Units (RFU) (BsAcuC (2c); Sample 1): 1720 RFU; Relative Fluorescene Units (RFU) (BsAcuC (2c); Sample 2): 1255 RFU; [AMC] (BsAcuC (2c); Sample 1): 1679.69 nM; [AMC] (BsAcuC (2c); Sample 2): 1225.59 nM; Relative Fluorescene Units (RFU) (BsAcuC (2c); Transform RFU*2, Sample 1): 3440 RFU; Relative Fluorescene Units (RFU) (BsAcuC (2c); Transform RFU*2, Sample 2): 2510 RFU; [AMC] (VcHdaH (5b); Sample 1): -22.46 nM; [AMC] (VcHdaH (5b); Sample 2): 121.09 nM; Relative Fluorescene Units (RFU) (VcHdaH (5b); Transform RFU*2, Sample 1): -46 RFU; Relative Fluorescene Units (RFU) (VcHdaH (5b); Transform RFU*2, Sample 2): 248 RFU; Relative Fluorescene Units (RFU) (VcHdaH (5b); Sample 1): -23 RFU; Relative Fluorescene Units (RFU) (VcHdaH (5b); Sample 2): 124 RFU; Relative Fluorescene Units (RFU) (PsApaH (4) [2]; Sample 1): 128 RFU; Relative Fluorescene Units (RFU) (PsApaH (4) [2]; Sample 2): 61 RFU; Relative Fluorescene Units (RFU) (PsApaH (4) [2]; Transform RFU*2, Sample 1): 256 RFU; Relative Fluorescene Units (RFU) (PsApaH (4) [2]; Transform RFU*2, Sample 2): 122 RFU; [AMC] (Controls): 3.01563 µM and 4.0166 µM
QPKKlau (QPKK-{AMC}; not fully specified (residue 4); printed as QPKKlau; also: lauroyl-lysine (which Lys not given here); UniProt P04637 317-320, looked up, fragment) | – | – | – | – | – | – | – | – | – | – | – | – | – | – | -308 | 12 | -154 | 6 | -177 | -96 | Relative Fluorescene Units (RFU) (KpHdaH (1b); Transform RFU*2, Sample 1): -354 RFU; Relative Fluorescene Units (RFU) (KpHdaH (1b); Transform RFU*2, Sample 2): -192 RFU; Relative Fluorescene Units (RFU) (BsAcuC (2c); Sample 1): 1004 RFU; Relative Fluorescene Units (RFU) (BsAcuC (2c); Sample 2): 695 RFU; [AMC] (BsAcuC (2c); Sample 1): 980.47 nM; [AMC] (BsAcuC (2c); Sample 2): 678.71 nM; Relative Fluorescene Units (RFU) (BsAcuC (2c); Transform RFU*2, Sample 1): 2008 RFU; Relative Fluorescene Units (RFU) (BsAcuC (2c); Transform RFU*2, Sample 2): 1390 RFU; [AMC] (VcHdaH (5b); Sample 1): -112.30 nM; [AMC] (VcHdaH (5b); Sample 2): -47.85 nM; Relative Fluorescene Units (RFU) (VcHdaH (5b); Transform RFU*2, Sample 1): -230 RFU; Relative Fluorescene Units (RFU) (VcHdaH (5b); Transform RFU*2, Sample 2): -98 RFU; Relative Fluorescene Units (RFU) (VcHdaH (5b); Sample 1): -115 RFU; Relative Fluorescene Units (RFU) (VcHdaH (5b); Sample 2): -49 RFU; Relative Fluorescene Units (RFU) (PsApaH (4) [2]; Sample 1): 196 RFU; Relative Fluorescene Units (RFU) (PsApaH (4) [2]; Sample 2): 66 RFU; Relative Fluorescene Units (RFU) (PsApaH (4) [2]; Transform RFU*2, Sample 1): 392 RFU; Relative Fluorescene Units (RFU) (PsApaH (4) [2]; Transform RFU*2, Sample 2): 132 RFU; [AMC] (Controls): 10.32715 µM and 12.34863 µM
